Measurements as given in PubChem BioAssay (NCI).
Values joined by “and” are separate entries in the source; they are usually repeats but may differ in a detail not shown here. Identical values can stand only once.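 All cell lines were grown in 96-well plates and treated with compound for 48 hours. GI50 = concentration required for 50% inhibition of growth. TGI is the concentration that stops growth completely.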

What was measured:
Test in all cases: NCI tumour cell line growth inhibition, 48 h
HCC-2998 colon = tested on: HCC-2998 colon
HL-60(TB) leukemia = tested on: HL-60(TB) leukemia
HT29 colon = tested on: HT29 colon
MDA-MB-435 = tested on: MDA-MB-435
MDA-N = tested on: MDA-N
MOLT-4 leukemia = tested on: MOLT-4 leukemia
SF-539 CNS = tested on: SF-539 CNS
SK-MEL-2 melanoma = tested on: SK-MEL-2 melanoma
SK-MEL-28 melanoma = tested on: SK-MEL-28 melanoma
SK-OV-3 ovarian = tested on: SK-OV-3 ovarian
UO-31 renal = tested on: UO-31 renal

| SMILES | TGI (HCC-2998 colon) | TGI (HL-60(TB) leukemia) | TGI (HT29 colon) [µM] | TGI (MDA-MB-435) | TGI (MDA-N) | TGI (MOLT-4 leukemia) | TGI (SF-539 CNS) | TGI (SK-MEL-2 melanoma) | TGI (SK-MEL-28 melanoma) | TGI (SK-OV-3 ovarian) | TGI (UO-31 renal) | GI50 (HL-60(TB) leukemia) | GI50 (HT29 colon) | GI50 (MDA-MB-435) | GI50 (MDA-N) | GI50 (MOLT-4 leukemia) | GI50 (SK-MEL-28 melanoma) | GI50 (UO-31 renal) |
| --- | --- | --- | --- | --- | --- | --- | --- | --- | --- | --- | --- | --- | --- | --- | --- | --- | --- | --- |
| COC(=O)/C=C/[C@H]1[C@H](C)N1S(=O)(=O)c1ccc(C)cc1 (some centres undefined) | > 100 µM | > 100 µM | > 100 | > 100 µM | > 100 µM | > 100 µM | > 100 µM | > 100 µM | > 100 µM | > 100 µM |  |  |  |  |  |  |  |  |
| Cc1csc(CP(=O)(OC(C)C)OC(C)C)n1 | > 100 µM | > 100 µM | > 100 | > 100 µM | > 100 µM | > 100 µM | > 100 µM | > 100 µM | > 100 µM | > 100 µM | > 100 µM |  |  |  |  |  |  |  |
| CC(=O)Oc1ccc(C2SCc3nc4ccccc4n32)cc1 (centres undefined) | 69 µM | 37.8 µM | > 100 | 59.4 µM | > 63.8 µM | 46.4 µM | > 100 µM | 80.2 µM | > 100 µM | 95.3 µM | > 61.5 µM |  |  |  |  |  |  |  |
| COc1ccc2oc(=O)c(-c3nc4ccccc4s3)cc2c1 | > 100 µM | > 100 µM | 33.1 | > 47.1 µM | > 67.2 µM | > 100 µM | 13.7 µM | > 100 µM | > 100 µM | 36.5 µM | > 41.6 µM |  |  |  |  |  |  |  |
| CCOc1ccnc2c(OC)c(C)c3nc4ccccc4nc3c12 | > 100 µM | > 100 µM | > 100 | > 100 µM | > 100 µM | > 100 µM | > 100 µM | > 100 µM | > 100 µM | > 100 µM | > 100 µM |  |  |  |  |  |  |  |
| COc1ccc(-c2c(C#N)c(N)n(C3OC(COC(C)=O)C(OC(C)=O)C(OC(C)=O)C3OC(C)=O)c(=S)c2C#N)cc1 (centres undefined) | > 100 µM and 38.2 µM | > 100 µM and 48.5 µM | > 100 | > 100 µM and 26.2 µM | > 100 µM and 28.2 µM | > 100 µM and 75.1 µM | 67.5 µM and > 100 µM | > 100 µM and 39.8 µM | > 100 µM and 32.7 µM | 78.1 µM and 85 µM | > 100 µM and 38.9 µM | > 100 µM and 27.9 µM | 84.7 µM and 36.2 µM | 44.1 µM and 13.4 µM | 58.3 µM and 15 µM | > 100 µM and 37 µM | 91.5 µM and 18.6 µM | 42.4 µM and 16.7 µM |
| O=[N+]([O-])c1cc(C2ON=C(c3ccccc3)N2C23CC4CC(CC(C4)C2)C3)ccc1Cl (centres undefined) | > 100 µM | > 100 µM | > 100 | > 100 µM | > 100 µM | > 100 µM | > 100 µM | > 100 µM | > 100 µM | > 100 µM | > 100 µM |  |  |  |  |  |  |  |
| CNC(=S)c1nnsc1N | > 100 µM | 0.0686 µM |  | > 100 µM | > 100 µM | > 100 µM | > 100 µM | > 100 µM | > 100 µM | > 100 µM | > 100 µM |  |  |  |  |  |  |  |
| Cc1cn(C2CC(/[N+]([O-])=N\Nc3ccc([N+](=O)[O-])cc3)C(CO)O2)c(=O)[nH]c1=O (centres undefined) | > 100 µM | > 100 µM | > 100 | > 100 µM | > 100 µM | > 100 µM | > 100 µM |  | > 100 µM | > 100 µM | > 100 µM |  |  |  |  |  |  |  |
| COC1=C2C[C@](OC)(C#CC=CC#CC2O)CC1(C)C (some centres undefined) | > 100 µM | > 100 µM | > 100 | > 100 µM | > 100 µM | > 100 µM | > 100 µM |  | > 100 µM |  | 80.3 µM |  |  |  |  |  |  |  |
| CC1(C)C/C=C\CCC(O)C(O)CCC(C)(C)C1=O (centres undefined) | > 100 µM | > 100 µM | > 100 | > 100 µM | > 100 µM | > 100 µM | > 100 µM | > 100 µM | > 100 µM | > 100 µM | > 100 µM |  |  |  |  |  |  |  |
| COc1ccc(-c2c3c(n(C4OC(COC(C)=O)C(OC(C)=O)C(OC(C)=O)C4OC(C)=O)c(=S)c2C#N)CCCC3)cc1 (centres undefined) | > 100 µM | > 100 µM | > 100 | > 100 µM | > 100 µM | > 100 µM | > 100 µM | 72.5 µM | > 100 µM | > 100 µM | > 100 µM |  |  |  |  |  |  |  |
| CCOC(=O)C(C(=O)OCC)C(=S)NC1OC(COC(C)=O)C(OC(C)=O)C(OC(C)=O)C1OC(C)=O (centres undefined) | > 100 µM | > 100 µM | > 100 | > 100 µM | > 100 µM | > 100 µM | > 100 µM | > 100 µM | > 100 µM | > 100 µM | > 100 µM |  |  |  |  |  |  |  |
| [B]C(=O)NC(CC(C)C)C(=O)NC1c2ccsc2C(=O)C1O (centres undefined) (tested in a mixture with another compound) | > 100 µM | > 100 µM | > 100 | > 100 µM | > 100 µM | > 100 µM | > 100 µM | > 100 µM | > 100 µM | > 100 µM | > 100 µM |  |  |  |  |  |  |  |
| CCOC(=O)C(/C=N/C(N)=S)=C(/O)c1ccccc1 | > 100 µM | > 100 µM | > 100 | > 100 µM | > 100 µM | > 100 µM | > 100 µM | > 100 µM | > 100 µM | > 100 µM | > 100 µM |  |  |  |  |  |  |  |
| COc1ccc(/C=C2/C(=O)C(c3ccccc3)N(c3ccccc3)C2=O)cc1OC (centres undefined) | > 10 µM | > 10 µM | > 10 | > 10 µM | > 10 µM | > 10 µM | > 10 µM | > 10 µM | > 10 µM | > 10 µM | > 10 µM |  |  |  |  |  |  |  |
| Cc1nc2c(ccc3[nH]c4ccccc4c32)s1 | 30.2 µM | > 100 µM | 31.3 | 64.7 µM | > 100 µM | 86.2 µM | > 100 µM | 54.7 µM | 60.3 µM | > 100 µM | 74.8 µM |  |  |  |  |  |  |  |
| COc1ccc(OC)c2c1-c1nnnn1CCC2(C)C | > 100 µM | > 100 µM | > 100 | > 100 µM | > 100 µM | > 100 µM | > 100 µM | > 100 µM | > 100 µM | > 100 µM | > 100 µM |  |  |  |  |  |  |  |
| Oc1ccccc1/C=N/N1C(=S)N(c2ccccc2)C(=Nc2ccccc2)C1=Nc1ccccc1 | > 78.2 µM | > 86.1 µM | 12.7 | > 60 µM | > 52.1 µM | > 89.5 µM | 17.9 µM | 42.9 µM | 80.5 µM | 30.7 µM | 33.1 µM |  |  |  |  |  |  |  |
| O=C1CSC2(CC(/C=C/c3ccccc3[N+](=O)[O-])=NN2c2cccc(S(=O)(=O)O)c2)N1c1nc2ccccc2s1 (centres undefined) | > 75 µM | 63.7 µM | 69.1 | 28.1 µM | 50.6 µM | 52.4 µM | > 75 µM | 35.4 µM | > 75 µM |  | 25.1 µM |  |  |  |  |  |  |  |
| CCOC1=NC(C(F)(F)F)(C(F)(F)F)N=C(/N=C(/N)N(C)C(C(C)C)P(=O)(OC(C)C)OC(C)C)O1 (centres undefined) | > 100 µM | 80.1 µM | > 100 | > 100 µM | > 100 µM | 51.4 µM | > 100 µM | > 100 µM | > 100 µM | > 100 µM | > 100 µM |  |  |  |  |  |  |  |
| ClC1(Cl)C2CCOC21n1cnc2ccccc21 (centres undefined) | > 100 µM | > 100 µM | > 100 | > 100 µM | > 100 µM | > 100 µM | > 100 µM | > 100 µM | > 100 µM | > 100 µM | > 100 µM |  |  |  |  |  |  |  |
| NC(=O)NC(=O)c1cccc(C(=O)NC(N)=O)n1 | > 100 µM | > 100 µM | > 100 | > 100 µM | > 100 µM | > 100 µM | > 100 µM | > 100 µM | > 100 µM | > 100 µM | > 100 µM |  |  |  |  |  |  |  |
| O=C1CCCC1C(O)(C(F)(F)Cl)C(F)(F)Cl (centres undefined) | > 10 µM | > 10 µM | > 10 | > 10 µM | > 10 µM | > 10 µM | > 10 µM | > 10 µM | > 10 µM | > 10 µM |  |  |  |  |  |  |  |  |
| Cc1cccc2c1CC1(Cc3c(C)cccc3C1=O)C2=O | > 100 µM | > 100 µM | > 100 | > 100 µM | > 100 µM | > 100 µM | > 100 µM | > 100 µM | > 100 µM | > 100 µM | > 100 µM |  |  |  |  |  |  |  |
| CCN(CC)C(=O)N1CN(c2ccccc2)C2(CCN(CCCC3(c4ccc(F)cc4)OCCO3)CC2)C1=O | 28.7 µM | 27.9 µM |  | 38.9 µM | 35.7 µM | 34.9 µM | 32 µM | 33 µM | 26.7 µM | 61.5 µM | 35.9 µM |  |  |  |  |  |  |  |
| COc1ccc(C2=Nn3c(C)nnc3S/C2=C\c2ccc(-c3ccc([N+](=O)[O-])cc3)o2)cc1 | 19.9 µM | 73.5 µM | 43 | 17.9 µM | 29.8 µM | 18 µM | 25.6 µM | 40.8 µM |  | > 100 µM | 29.8 µM |  |  |  |  |  |  |  |
| Cc1c(OCc2cccc3ccccc23)ccc2c(=O)cc(S)oc12 | > 100 µM | 59.7 µM | > 100 | 98.6 µM | > 100 µM | > 100 µM | 65.2 µM | 50.4 µM | > 100 µM |  | > 100 µM |  |  |  |  |  |  |  |
| NCCCCNCCCNC(=O)c1csc(-c2nc(CCN)sc2Cl)n1 | > 100 µM | > 100 µM | > 100 | > 100 µM | > 100 µM | > 100 µM | > 100 µM |  | > 100 µM | > 100 µM | > 100 µM |  |  |  |  |  |  |  |
| O=c1[nH]nc(-c2ccccc2)c2[nH]c3c(c12)CCCc1ccccc1-3 | 28 µM | 46.2 µM | 24.3 | 29.6 µM | 29.4 µM | 33.8 µM | 36.1 µM |  |  | > 100 µM | 34.7 µM |  |  |  |  |  |  |  |
